In patent publication US6689773B2, “Uracil substituted phenyl sulfamoyl carboxamides” (BASF Aktiengesellschaft, priority 2000, dated 2004):

What was measured:
Format in all cases: in vivo
[1] = test system: ABUTH, Velvetleaf, Abutilon theophrasti, Medic.; experiment: Postemergence herbicidal evaluation (Example 147); details: rating scale 0-9, two to three weeks after treatment
Method: (§1) Seedling plants were grown in jiffy flats for about two weeks. The test compounds were dispersed in 80/20 acetone/water mixtures containing 1.0% SUN-IT®II, a methylated seed oil, in sufficient quantities to provide the equivalent of about 0.016 to 0.032 kg per hectare of active compound when applied to the plants through a spray nozzle operating at 40 psi for a predetermined time. After spraying, the plants were placed on greenhouse benches and were cared for in accordance with conventional greenhouse procedures. Approximately two to three weeks after treatment, the seedling plants were examined and rated according to the rating scale (0-9) set forth below. Where more than one test is involved for a given compound, the data are averaged. [table] The scale is based upon a visual observation of plant stand, vigor, malformation, size, chlorosis and overall plant appearance as compared with a control. Plant species employed in these evaluations are reported by header abbreviation, common name and scientific name. [table]

[2] = test system: ALOMY, Blackgrass, Alopecurus myosuroides; experiment: Postemergence herbicidal evaluation (Example 147); details: rating scale 0-9, two to three weeks after treatment
Method: as §1

[3] = test system: AMBEL, Ragweed, Common, Ambrosia artemiisifolia, L.; experiment: Postemergence herbicidal evaluation (Example 147); details: rating scale 0-9, two to three weeks after treatment
Method: as §1

[4] = test system: CHEAL, Lambsquarters, Chenopodium album, L. Common; experiment: Postemergence herbicidal evaluation (Example 147); details: rating scale 0-9, two to three weeks after treatment
Method: as §1

[5] = test system: DIGSA, Crabgrass, (Hairy) L, Digitaria sanguinalis, (L)Scop; experiment: Postemergence herbicidal evaluation (Example 147); details: rating scale 0-9, two to three weeks after treatment
Method: as §1

[6] = test system: ECHCG, Barnyardgrass, Echinochloa crusgalli, (L.)Beau; experiment: Postemergence herbicidal evaluation (Example 147); details: rating scale 0-9, two to three weeks after treatment
Method: as §1

[7] = test system: GLXMA, Soybean, Glycine max, (L.) Merr.; experiment: Postemergence herbicidal evaluation (Example 147); details: rating scale 0-9, two to three weeks after treatment
Method: as §1

[8] = test system: IPOHE, Morningglory, Ivyleaf, Ipomoea hederacea, (L)Jacq.; experiment: Postemergence herbicidal evaluation (Example 147); details: rating scale 0-9, two to three weeks after treatment
Method: as §1

[9] = test system: SETVI, Green foxtail, Setaria viridis, (L.)Beau; experiment: Postemergence herbicidal evaluation (Example 147); details: rating scale 0-9, two to three weeks after treatment
Method: as §1

[10] = test system: TRZAW, Winter wheat, Tritium Aestivum, L. (Winter); experiment: Postemergence herbicidal evaluation (Example 147); details: rating scale 0-9, two to three weeks after treatment
Method: as §1

[11] = test system: XANST, Cocklebur, Xanthium strumariam; experiment: Postemergence herbicidal evaluation (Example 147); details: rating scale 0-9, two to three weeks after treatment
Method: as §1

[12] = test system: ZEAMX, Field corn, Zea mays L.; experiment: Postemergence herbicidal evaluation (Example 147); details: rating scale 0-9, two to three weeks after treatment
Method: as §1

[13] = test system: ABUTH, Velvetleaf, Abutilon theophrasti, Medic.; experiment: Preemergence herbicidal evaluation (Example 148); details: rating scale 0-9, two to four weeks after treatment
Method: (§2) The scale is based upon a visual observation of plant stand, vigor, malformation, size, chlorosis and overall plant appearance as compared with a control.
(§3) The herbicidal activity of the compounds of the present invention was evaluated by the following tests wherein the seeds of a variety of monocotyledonous and dicotyledonous plants were separately mixed with potting soil and planted on top of approximately one inch of soil in separate pint cups. After planting, the cups were sprayed with the selected aqueous acetone solution containing test compound in sufficient quantity to provide the equivalent of about 0.125 to 0.250 kg per hectare of test compound per cup. The treated cups were then placed on greenhouse benches, watered and cared for in accordance with conventional greenhouse procedures. From two to four weeks after treatment, the tests were terminated and each cup was examined and rated according to the rating system provided in Example 94. When more than one test was performed for a given compound, the data were averaged.

[14] = test system: ALOMY, Blackgrass, Alopecurus myosuroides; experiment: Preemergence herbicidal evaluation (Example 148); details: rating scale 0-9, two to four weeks after treatment
Method: as §2, §3

[15] = test system: AMBEL, Ragweed, Common, Ambrosia artemiisifolia, L.; experiment: Preemergence herbicidal evaluation (Example 148); details: rating scale 0-9, two to four weeks after treatment
Method: as §2, §3

[16] = test system: CHEAL, Lambsquarters, Chenopodium album, L. Common; experiment: Preemergence herbicidal evaluation (Example 148); details: rating scale 0-9, two to four weeks after treatment
Method: as §2, §3

[17] = test system: DIGSA, Crabgrass, (Hairy) L, Digitaria sanguinalis, (L)Scop; experiment: Preemergence herbicidal evaluation (Example 148); details: rating scale 0-9, two to four weeks after treatment
Method: as §2, §3

[18] = test system: ECHCG, Barnyardgrass, Echinochloa crusgalli, (L.)Beau; experiment: Preemergence herbicidal evaluation (Example 148); details: rating scale 0-9, two to four weeks after treatment
Method: as §2, §3

[19] = test system: IPOHE, Morningglory, Ivyleaf, Ipomoea hederacea, (L)Jacq.; experiment: Preemergence herbicidal evaluation (Example 148); details: rating scale 0-9, two to four weeks after treatment
Method: as §2, §3

[20] = test system: SETVI, Green foxtail, Setaria viridis, (L.)Beau; experiment: Preemergence herbicidal evaluation (Example 148); details: rating scale 0-9, two to four weeks after treatment
Method: as §2, §3

[21] = test system: TRZAW, Winter wheat, Tritium Aestivum, L. (Winter); experiment: Preemergence herbicidal evaluation (Example 148); details: rating scale 0-9, two to four weeks after treatment
Method: as §2, §3

[22] = test system: ZEAMX, Field corn, Zea mays L.; experiment: Preemergence herbicidal evaluation (Example 148); details: rating scale 0-9, two to four weeks after treatment
Method: as §2, §3

## CCC(C)NS(=O)(=O)NC(=O)c1cc(-n2c(=O)cc(C(F)(F)F)n(C)c2=O)c(F)cc1Cl (stereo not shown) [Example 64]
[1]; rate 0.016 kg/ha
  Postemergence herbicidal rating ABUTH: 9.0
[1]; rate 0.032 kg/ha
  Postemergence herbicidal rating ABUTH: 9.0
[2]; rate 0.016 kg/ha
  Postemergence herbicidal rating ALMOY: 3.0
[2]; rate 0.032 kg/ha
  Postemergence herbicidal rating ALMOY: 5.0
[3]; rate 0.016 kg/ha
  Postemergence herbicidal rating AMBEL: 9.0
[3]; rate 0.032 kg/ha
  Postemergence herbicidal rating AMBEL: 9.0
[4]; rate 0.016 kg/ha
  Postemergence herbicidal rating CHEAL: 9.0
[4]; rate 0.032 kg/ha
  Postemergence herbicidal rating CHEAL: 9.0
[5]; rate 0.016 kg/ha
  Postemergence herbicidal rating DIGSA: 5.0
[5]; rate 0.032 kg/ha
  Postemergence herbicidal rating DIGSA: 5.0
[6]; rate 0.016 kg/ha
  Postemergence herbicidal rating ECHCG: 9.0
[6]; rate 0.032 kg/ha
  Postemergence herbicidal rating ECHCG: 9.0
[7]; rate 0.016 kg/ha
  Postemergence herbicidal rating GLXMA: 7.5
[7]; rate 0.032 kg/ha
  Postemergence herbicidal rating GLXMA: 8.0
[8]; rate 0.016 kg/ha
  Postemergence herbicidal rating IPOHE: 9.0
[8]; rate 0.032 kg/ha
  Postemergence herbicidal rating IPOHE: 9.0
[9]; rate 0.016 kg/ha
  Postemergence herbicidal rating SETVI: 8.0
[9]; rate 0.032 kg/ha
  Postemergence herbicidal rating SETVI: 9.0
[10]; rate 0.016 kg/ha
  Postemergence herbicidal rating TRZAW: 6.0
[10]; rate 0.032 kg/ha
  Postemergence herbicidal rating TRZAW: 7.0
[11]; rate 0.016 kg/ha
  Postemergence herbicidal rating XANST: 9.0
[11]; rate 0.032 kg/ha
  Postemergence herbicidal rating XANST: 9.0
[12]; rate 0.016 kg/ha
  Postemergence herbicidal rating ZEAMX: 7.5
[12]; rate 0.032 kg/ha
  Postemergence herbicidal rating ZEAMX: 8.0
[13]; rate 0.125 kg/ha
  Preemergence herbicidal rating ABUTH: 9.0
[13]; rate 0.25 kg/ha
  Preemergence herbicidal rating ABUTH: 9.0
[14]; rate 0.125 kg/ha
  Preemergence herbicidal rating ALMOY: 0.0
[14]; rate 0.25 kg/ha
  Preemergence herbicidal rating ALMOY: 4.0
[15]; rate 0.125 kg/ha
  Preemergence herbicidal rating AMBEL: 9.0
[15]; rate 0.25 kg/ha
  Preemergence herbicidal rating AMBEL: 9.0
[16]; rate 0.125 kg/ha
  Preemergence herbicidal rating CHEAL: 9.0
[16]; rate 0.25 kg/ha
  Preemergence herbicidal rating CHEAL: 9.0
[17]; rate 0.125 kg/ha
  Preemergence herbicidal rating DIGSA: 8.0
[17]; rate 0.25 kg/ha
  Preemergence herbicidal rating DIGSA: 9.0
[18]; rate 0.125 kg/ha
  Preemergence herbicidal rating ECHCG: 3.0
[18]; rate 0.25 kg/ha
  Preemergence herbicidal rating ECHCG: 7.0
[19]; rate 0.125 kg/ha
  Preemergence herbicidal rating IPOHE: 9.0
[19]; rate 0.25 kg/ha
  Preemergence herbicidal rating IPOHE: 9.0
[20]; rate 0.125 kg/ha
  Preemergence herbicidal rating SETVI: 8.0
[20]; rate 0.25 kg/ha
  Preemergence herbicidal rating SETVI: 9.0
[21]; rate 0.125 kg/ha
  Preemergence herbicidal rating TRZAW: 0.0
[21]; rate 0.25 kg/ha
  Preemergence herbicidal rating TRZAW: 3.0
[22]; rate 0.125 kg/ha
  Preemergence herbicidal rating ZEAMX: 0.0
[22]; rate 0.25 kg/ha
  Preemergence herbicidal rating ZEAMX: 2.0

## CCCN(C)S(=O)(=O)NC(=O)c1cc(-n2c(=O)cc(C(F)(F)F)n(C)c2=O)c(F)cc1Cl [Example 67]
[1]; rate 0.016 kg/ha
  Postemergence herbicidal rating ABUTH: 9.0
[1]; rate 0.032 kg/ha
  Postemergence herbicidal rating ABUTH: 9.0
[2]; rate 0.016 kg/ha
  Postemergence herbicidal rating ALMOY: 2.0
[2]; rate 0.032 kg/ha
  Postemergence herbicidal rating ALMOY: 3.0
[3]; rate 0.016 kg/ha
  Postemergence herbicidal rating AMBEL: 9.0
[3]; rate 0.032 kg/ha
  Postemergence herbicidal rating AMBEL: 9.0
[4]; rate 0.016 kg/ha
  Postemergence herbicidal rating CHEAL: 9.0
[4]; rate 0.032 kg/ha
  Postemergence herbicidal rating CHEAL: 9.0
[5]; rate 0.016 kg/ha
  Postemergence herbicidal rating DIGSA: 6.0
[5]; rate 0.032 kg/ha
  Postemergence herbicidal rating DIGSA: 6.0
[6]; rate 0.016 kg/ha
  Postemergence herbicidal rating ECHCG: 8.0
[6]; rate 0.032 kg/ha
  Postemergence herbicidal rating ECHCG: 8.0
[7]; rate 0.016 kg/ha
  Postemergence herbicidal rating GLXMA: 8.0
[7]; rate 0.032 kg/ha
  Postemergence herbicidal rating GLXMA: 8.5
[8]; rate 0.016 kg/ha
  Postemergence herbicidal rating IPOHE: 9.0
[8]; rate 0.032 kg/ha
  Postemergence herbicidal rating IPOHE: 9.0
[9]; rate 0.016 kg/ha
  Postemergence herbicidal rating SETVI: 8.0
[9]; rate 0.032 kg/ha
  Postemergence herbicidal rating SETVI: 8.0
[10]; rate 0.016 kg/ha
  Postemergence herbicidal rating TRZAW: 6.5
[10]; rate 0.032 kg/ha
  Postemergence herbicidal rating TRZAW: 7.0
[11]; rate 0.016 kg/ha
  Postemergence herbicidal rating XANST: 9.0
[11]; rate 0.032 kg/ha
  Postemergence herbicidal rating XANST: 9.0
[12]; rate 0.016 kg/ha
  Postemergence herbicidal rating ZEAMX: 7.5
[12]; rate 0.032 kg/ha
  Postemergence herbicidal rating ZEAMX: 7.5
[13]; rate 0.125 kg/ha
  Preemergence herbicidal rating ABUTH: 9.0
[13]; rate 0.25 kg/ha
  Preemergence herbicidal rating ABUTH: 9.0
[14]; rate 0.125 kg/ha
  Preemergence herbicidal rating ALMOY: 0.0
[14]; rate 0.25 kg/ha
  Preemergence herbicidal rating ALMOY: 0.0
[15]; rate 0.125 kg/ha
  Preemergence herbicidal rating AMBEL: 9.0
[15]; rate 0.25 kg/ha
  Preemergence herbicidal rating AMBEL: 7.0
[16]; rate 0.125 kg/ha
  Preemergence herbicidal rating CHEAL: 9.0
[16]; rate 0.25 kg/ha
  Preemergence herbicidal rating CHEAL: 9.0
[17]; rate 0.125 kg/ha
  Preemergence herbicidal rating DIGSA: 7.0
[17]; rate 0.25 kg/ha
  Preemergence herbicidal rating DIGSA: 8.0
[18]; rate 0.125 kg/ha
  Preemergence herbicidal rating ECHCG: 8.0
[18]; rate 0.25 kg/ha
  Preemergence herbicidal rating ECHCG: 9.0
[19]; rate 0.125 kg/ha
  Preemergence herbicidal rating IPOHE: 9.0
[19]; rate 0.25 kg/ha
  Preemergence herbicidal rating IPOHE: 9.0
[20]; rate 0.125 kg/ha
  Preemergence herbicidal rating SETVI: 8.0
[20]; rate 0.25 kg/ha
  Preemergence herbicidal rating SETVI: 8.0
[21]; rate 0.125 kg/ha
  Preemergence herbicidal rating TRZAW: 0.0
[21]; rate 0.25 kg/ha
  Preemergence herbicidal rating TRZAW: 1.0
[22]; rate 0.125 kg/ha
  Preemergence herbicidal rating ZEAMX: 0.0
[22]; rate 0.25 kg/ha
  Preemergence herbicidal rating ZEAMX: 1.0
